From ChEMBL document CHEMBL1201862, “PubChem BioAssay data set” (2004)
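Compound exposure: 48 hours, 5 concentrations, 96-well plates. GI50: concentration for 50% inhibition of growth.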 Active and inactive are the calls of the source. Rule as the data show it: active = GI50 up to about 1.1 µM and inactive = higher.

How the values were obtained:
Experiment in all cases: DTP human tumour cell line panel, 48 h
HL-60 = system: HL-60
SNB-19 = system: SNB-19
SF-268 = system: SF-268
OVCAR-4 = system: OVCAR-4
IGROV-1 = system: IGROV-1
OVCAR-3 = system: OVCAR-3
LOX IMVI = system: LOX IMVI
U-251 = system: U-251
Hs-578T = system: Hs-578T
PC-3 = system: PC-3
DU-145 = system: DU-145
MDA-N = system: MDA-N
UACC-257 = system: UACC-257
KM12 = system: KM12
MOLT-4 = system: MOLT-4
HT-29 = system: HT-29
SR = system: SR
HOP-62 = system: HOP-62
SK-MEL-5 = system: SK-MEL-5
OVCAR-5 = system: OVCAR-5
CAKI-1 = system: CAKI-1
K562 = system: K562
HCT-116 = system: HCT-116
HCT-15 = system: HCT-15
EKVX = system: EKVX
RPMI-8226 = system: RPMI-8226
CCRF-CEM = system: CCRF-CEM
SF-295 = system: SF-295
Malme-3M = system: Malme-3M
A549 = system: A549
COLO 205 = system: COLO 205
TK-10 = system: TK-10
ACHN = system: ACHN
786-0 = system: 786-0
SK-MEL-28 = system: SK-MEL-28
RXF 393 = system: RXF 393
MDA-MB-435 = system: MDA-MB-435
SN12C = system: SN12C
T47D = system: T47D
M14 = system: M14
NCI-H23 = system: NCI-H23
UACC-62 = system: UACC-62
NCI/ADR-RES = system: NCI/ADR-RES
SK-MEL-2 = system: SK-MEL-2
NCI-H226 = system: NCI-H226
NCI-H522 = system: NCI-H522
OVCAR-8 = system: OVCAR-8
BT-549 = system: BT-549
A498 = system: A498
SW-620 = system: SW-620
UO-31 = system: UO-31
SF-539 = system: SF-539
SNB-75 = system: SNB-75
SK-OV-3 = system: SK-OV-3
HOP-92 = system: HOP-92
MCF7 = system: MCF7
MDA-MB-231 = system: MDA-MB-231
NCI-H460 = system: NCI-H460

Measured: GI50

Cc1ncn(-c2ccccc2O)c1C
inactive: HL-60 > 100 µM | SNB-19 > 100 µM | SF-268 > 100 µM | OVCAR-4 > 100 µM | IGROV-1 > 100 µM | OVCAR-3 > 100 µM | LOX IMVI > 100 µM | U-251 > 100 µM | Hs-578T > 100 µM | PC-3 > 100 µM | DU-145 > 100 µM | MDA-N > 100 µM | UACC-257 34.9 µM | KM12 > 100 µM | MOLT-4 > 100 µM | HT-29 > 100 µM | SR > 100 µM | HOP-62 > 100 µM | SK-MEL-5 74.8 µM | OVCAR-5 > 100 µM | CAKI-1 > 100 µM | K562 > 100 µM | HCT-116 > 100 µM | EKVX > 100 µM | RPMI-8226 > 100 µM | CCRF-CEM > 100 µM | SF-295 55.5 µM | Malme-3M > 100 µM | A549 > 100 µM | COLO 205 > 100 µM | TK-10 > 100 µM | ACHN > 100 µM | 786-0 > 100 µM | SK-MEL-28 > 100 µM | RXF 393 > 100 µM | MDA-MB-435 > 100 µM | SN12C > 100 µM | T47D > 100 µM | M14 > 100 µM | NCI-H23 > 100 µM | UACC-62 > 100 µM | NCI/ADR-RES > 100 µM | SK-MEL-2 > 100 µM | NCI-H226 > 100 µM | NCI-H522 > 100 µM | OVCAR-8 > 100 µM | BT-549 > 100 µM | A498 > 100 µM | SW-620 > 100 µM | UO-31 > 100 µM | SF-539 > 100 µM | SNB-75 > 100 µM | SK-OV-3 > 100 µM | HOP-92 > 100 µM | MCF7 > 100 µM | MDA-MB-231 > 100 µM
> 100 µM: HCT-15

NCCNc1ncnc2ccc(Cl)cc12
inactive: HL-60 > 100 µM | SNB-19 > 100 µM | SF-268 81.1 µM | OVCAR-4 > 100 µM | IGROV-1 49.9 µM | OVCAR-3 > 100 µM | LOX IMVI > 100 µM | U-251 > 100 µM | Hs-578T > 100 µM | PC-3 75.5 µM | DU-145 > 100 µM | MDA-N 99.1 µM | UACC-257 36 µM | KM12 > 100 µM | HT-29 66.8 µM | SR 45.7 µM | HOP-62 > 100 µM | SK-MEL-5 > 100 µM | OVCAR-5 > 100 µM | CAKI-1 > 100 µM | K562 > 100 µM | HCT-116 67.8 µM | EKVX > 100 µM | RPMI-8226 96.2 µM | CCRF-CEM > 100 µM | SF-295 > 100 µM | Malme-3M > 100 µM | A549 93.8 µM | COLO 205 49.3 µM | TK-10 28.6 µM | ACHN 66.4 µM | 786-0 > 100 µM | SK-MEL-28 > 100 µM | RXF 393 > 100 µM | MDA-MB-435 > 100 µM | SN12C 88.5 µM | NCI-H460 32.8 µM | T47D > 100 µM | M14 > 100 µM | NCI-H23 > 100 µM | UACC-62 93.5 µM | NCI/ADR-RES > 100 µM | SK-MEL-2 > 100 µM | NCI-H226 > 100 µM | NCI-H522 57.7 µM | OVCAR-8 74.1 µM | BT-549 > 100 µM | A498 37.9 µM | SW-620 72.3 µM | UO-31 97.3 µM | SNB-75 97.5 µM | SK-OV-3 > 100 µM | HOP-92 93.5 µM | MCF7 96.8 µM | MDA-MB-231 93.1 µM
> 100 µM: HCT-15
